Test results published in patent US4888333A, “Allymercaptoacetylsydnonimines, processes for their preparation, and their use” (Cassella Aktiengessellschaft, priority 1987, dated 1989).
Read-outs that look alike come from different tables or passages of the source.

Test system: pulmonary artery of the guinea pig
Assay: Relaxant effect: inhibition of CaCl2-triggered contraction of potassium-depolarized spiral strips of the pulmonary artery
Format: cell-based
Settings: calcium-free Tyrode's solution, 40 mmol/l potassium, 0.5 mmol/l CaCl2, mean of 4 to 6 vessel strips, read-out: IC50 (concentration of the test substance which inhibits contraction by 50%)
Description: The pharmacological action of the compounds of the formula I was established using a modification of the method of Godfraind and Kaba (Arch. Int. Pharmacodyn. Ther. 196, (Suppl) 35 to 49, 1972) and of Schumann et al. (Naunyn-Schmiedeberg's Arch. Pharmacol. 289, 409 to 481, 1975). This entails spiral strips of the pulmonary artery of the guinea pig being equilibrated in calcium-free Tyrode's solution and then depolarized with 40 mmol/l of potassium. Addition of 0.5 mmol/l of CaCl2 then triggers a contraction. The relaxant effect of the test substance is established by cumulative addition of concentrations in 1/2 log 10 steps. The concentration of the test substance which inhibits contraction by 50% (=IC50, mol/l) is established from the concentration/effect graph (abscissa: -log mol/l test substance, ordinate: % inhibition of the maximum contraction, mean of 4 to 6 vessel strips).

## C=CCSCC(=O)[N-]c1c[n+](N(C)C2CCS(=O)(=O)C2)no1 (stereo not shown) [Example 6, 3-(N-Methyl-N-1,1-dioxotetrahydro-3-thienylamino)-N-allylmercaptoacetylsydnonimine]
Cavia porcellus
  IC50: 10 µM

## C=CCSCC(=O)[N-]c1c[n+](N2CCN(S(C)(=O)=O)CC2)no1 [Example 3, 3-(4-Methylsulphonyl-1-piperazinyl)-N-allylmercaptoacetylsydnonimine]
Cavia porcellus
  IC50: 30 µM

## C=CCSCC(=O)[N-]c1c[n+](N(C)C)no1 [Example 7, 3-Dimethylamino-N-allylmercaptoacetylsydnonimine]
Cavia porcellus
  IC50: 30 µM

## C=CCSCC(=O)[N-]c1c[n+](N2CCOCC2)no1 [Example 1, 3-Morpholino-N-allylmercaptoacetylsydononimine]
Cavia porcellus
  IC50: 20 µM

## C=CCSCC(=O)[N-]c1c[n+](N2CCN(S(=O)(=O)N(C)C)CC2)no1 [Example 4, 3-(4-Dimethylaminosulphonyl-1-piperazinyl)-N-allylmercaptoacetylsydnonimine]
Cavia porcellus
  IC50: 30 µM

## CCOC(=O)[N-]c1cn(N2CCOCC2)n[o+]1 [Molsidomine, N-ethoxycarbonyl-3-morpholinosydnonimine, reference compound]
Cavia porcellus
  IC50: 100 µM
  IC50: > 100 µM

## C=CCSCC(=O)[N-]c1c[n+](N2CCN(C(=O)OCC)CC2)no1 [Example 2, 3-(4-Ethoxycarbonyl-1-piperazinyl)-N-allylmercaptoacetylsydnonimine]
Cavia porcellus
  IC50: 80 µM

## C=CCSCC(=O)[N-]c1c[n+](N2CCS(=O)(=O)CC2)no1 [Example 5, 3-(1,1-Dioxotetrahydro-1,4-thiazin-4-yl)-N-allylmercaptoacetylsydnonimine]
Cavia porcellus
  IC50: 30 µM

## C=CCSCC(=O)[N-]c1c[n+](N2CCCCC2)no1 [Example 8, 3-Piperidino-N-allylmercaptoacetylsydnonimine]
Cavia porcellus
  IC50: 20 µM
